In patent US12091405B2, “Substituted pyrazole compounds as indoleamine 2,3-dioxygenase inhibitors” (Merck Sharp & Dohme LLC, priority 2018, dated 2024):

The molecules below were run against IDO1 (Homo sapiens, UniProt P14902) (assay: IDO1 Cellular Assay in HeLa Cells Stimulated with IFNγ). Conditions: IFNγ 100 ng/mL, 300 uM L-tryptophan, about 48 hours, fluorescence readout, read-out: IDO1 HELA Cell Assay, IC50.
Assay type: cell-based

Sequence of IDO1 (P14902 whole entry): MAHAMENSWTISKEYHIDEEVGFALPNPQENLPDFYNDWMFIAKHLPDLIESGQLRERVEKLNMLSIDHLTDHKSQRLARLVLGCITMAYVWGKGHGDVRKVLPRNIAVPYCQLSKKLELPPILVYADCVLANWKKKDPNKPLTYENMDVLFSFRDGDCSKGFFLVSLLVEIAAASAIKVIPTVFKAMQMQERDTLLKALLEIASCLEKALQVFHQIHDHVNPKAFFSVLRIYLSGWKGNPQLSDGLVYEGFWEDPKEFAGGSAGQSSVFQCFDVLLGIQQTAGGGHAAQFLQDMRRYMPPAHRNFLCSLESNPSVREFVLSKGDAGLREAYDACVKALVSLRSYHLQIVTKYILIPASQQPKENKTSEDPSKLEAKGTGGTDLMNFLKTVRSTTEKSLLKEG

Row | SMILES | IC50
1 | C[C@@H]1CN(C(=O)c2nn(CC(=O)N3CCC(c4cc(F)ccc4F)CC3)c3c2CCC3)C[C@H](C)O1 [Example 150, 1-[4-(2,5-difluorophenyl)piperidin-1-yl]-2-{3-[(2R,6S)-2,6-dimethylmorpholine-4-carbonyl]-5,6-dihydrocyclopenta[c]pyrazol-1(4H)-yl}ethan-1-one] | 122 nM
2 | C[C@@H]1CN(C(=O)c2nn(CC(=O)N3CCC(c4ccc(F)c(C(F)(F)F)c4)CC3)c3c2CCC3)C[C@H](C)O1 [Example 151, 2-{3-[(2R,6S)-2,6-dimethylmorpholine-4-carbonyl]-5,6-dihydrocyclopenta[c]pyrazol-1(4H)-yl}-1-{4-[4-fluoro-3-(trifluoromethyl)phenyl]piperidin-1-yl}ethan-1-one] | 126 nM
3 | C[C@@H]1CN(C(=O)c2nn(CC(=O)N3CCC(c4c(F)ccc(F)c4F)CC3)c3c2CCC3)C[C@H](C)O1 [Example 152, 2-{3-[(2R,6S)-2,6-dimethylmorpholine-4-carbonyl]-5,6-dihydrocyclopenta[c]pyrazol-1(4H)-yl}-1-[4-(2,3,6-trifluorophenyl)piperidin-1-yl]ethan-1-one] | 126 nM
4 | C[C@@H]1CN(C(=O)c2nn(CC(=O)N3CCC(c4cccc5c4OC(F)(F)O5)CC3)c3c2CCC3)C[C@H](C)O1 [Example 153, 1-[4-(2,2-difluoro-2H-1,3-benzodioxol-4-yl)piperidin-1-yl]-2-{3-[(2R,6S)-2,6-dimethylmorpholine-4-carbonyl]-5,6-dihydrocyclopenta[c]pyrazol-1(4H)-yl}ethan-1-one] | 138 nM
5 | C[C@@H]1CN(C(=O)c2nn(CC(=O)N3CCC(c4cc(F)c(F)cc4Cl)CC3)c3c2CCC3)C[C@H](C)O1 [Example 154, 1-[4-(2-chloro-4,5-difluorophenyl)piperidin-1-yl]-2-{3-[(2R,6S)-2,6-dimethylmorpholine-4-carbonyl]-5,6-dihydrocyclopenta[c]pyrazol-1(4H)-yl}ethan-1-one] | 142 nM
6 | Cc1cc(C)cc(C2CCN(C(=O)Cn3nc(C(=O)N4C[C@@H](C)O[C@@H](C)C4)c4c3CCC4)CC2)c1 [Example 155, 2-{3-[(2R,6S)-2,6-dimethylmorpholine-4-carbonyl]-5,6-dihydrocyclopenta[c]pyrazol-1(4H)-yl}-1-[4-(3,5-dimethylphenyl)piperidin-1-yl]ethan-1-one] | 143 nM
7 | COc1ccc(F)c(C2CCN(C(=O)Cn3nc(C(=O)N4C[C@@H](C)O[C@@H](C)C4)c4c3CCC4)CC2)c1 [Example 156, 2-{3-[(2R,6S)-2,6-dimethylmorpholine-4-carbonyl]-5,6-dihydrocyclopenta[c]pyrazol-1(4H)-yl}-1-[4-(2-fluoro-5-methoxyphenyl)piperidin-1-yl]ethan-1-one] | 149 nM
8 | C[C@@H]1CN(C(=O)c2nn(CC(=O)N3CCC(c4ccccc4Cl)CC3)c3c2CCC3)C[C@H](C)O1 [Example 157, 1-[4-(2-chlorophenyl)piperidin-1-yl]-2-{3-[(2R,6S)-2,6-dimethylmorpholine-4-carbonyl]-5,6-dihydrocyclopenta[c]pyrazol-1(4H)-yl}ethan-1-one] | 150 nM
9 | Cc1cccc(F)c1C1CCN(C(=O)Cn2nc(C(=O)N3C[C@@H](C)O[C@@H](C)C3)c3c2CCC3)CC1 [Example 158, 2-{3-[(2R,6S)-2,6-dimethylmorpholine-4-carbonyl]-5,6-dihydrocyclopenta[c]pyrazol-1(4H)-yl}-1-[4-(2-fluoro-6-methylphenyl)piperidin-1-yl]ethan-1-one] | 153 nM
10 | C[C@@H]1CN(C(=O)c2nn(CC(=O)N3CCC(c4cccc(C(C)(F)F)c4)CC3)c3c2CCC3)C[C@H](C)O1 [Example 159, 1-{4-[3-(1,1-difluoroethyl)phenyl]piperidin-1-yl}-2-{3-[(2R,6S)-2,6-dimethylmorpholine-4-carbonyl]-5,6-dihydrocyclopenta[c]pyrazol-1(4H)-yl}ethan-1-one] | 156 nM
11 | C[C@@H]1CN(C(=O)c2nn(CC(=O)N3CCC(c4cccc(OC(F)(F)F)c4)CC3)c3c2CCC3)C[C@H](C)O1 [Example 160, 2-{3-[(2R,6S)-2,6-dimethylmorpholine-4-carbonyl]-5,6-dihydrocyclopenta[c]pyrazol-1(4H)-yl}-1-{4-[3-(trifluoromethoxy)phenyl]piperidin-1-yl}ethan-1-one] | 162 nM
12 | C[C@@H]1CN(C(=O)c2nn(CC(=O)N3CCC(c4ccc(C(F)(F)F)c(F)c4)CC3)c3c2CCC3)C[C@H](C)O1 [Example 161, 2-{3-[(2R,6S)-2,6-dimethylmorpholine-4-carbonyl]-5,6-dihydrocyclopenta[c]pyrazol-1(4H)-yl}-1-{4-[3-fluoro-4-(trifluoromethyl)phenyl]piperidin-1-yl}ethan-1-one] | 165 nM
13 | Cc1cc(C(F)(F)F)ccc1C1CCN(C(=O)Cn2nc(C(=O)N3C[C@@H](C)O[C@@H](C)C3)c3c2CCC3)CC1 [Example 162, 2-{3-[(2R,6S)-2,6-dimethylmorpholine-4-carbonyl]-5,6-dihydrocyclopenta[c]pyrazol-1(4H)-yl}-1-{4-[2-methyl-4-(trifluoromethyl)phenyl]piperidin-1-yl}ethan-1-one] | 173 nM
14 | C[C@@H]1CN(C(=O)c2nn(CC(=O)N3CCC(c4ccccc4OC(F)(F)F)CC3)c3c2CCC3)C[C@H](C)O1 [Example 163, 2-{3-[(2R,6S)-2,6-dimethylmorpholine-4-carbonyl]-5,6-dihydrocyclopenta[c]pyrazol-1(4H)-yl}-1-{4-[2-(trifluoromethoxy)phenyl]piperidin-1-yl}ethan-1-one] | 177 nM
15 | C[C@@H]1CN(C(=O)c2nn(CC(=O)N3CCC(c4cccc(CC(F)(F)F)c4)CC3)c3c2CCC3)C[C@H](C)O1 [Example 164, 2-{3-[(2R,6S)-2,6-dimethylmorpholine-4-carbonyl]-5,6-dihydrocyclopenta[c]pyrazol-1(4H)-yl}-1-{4-[3-(2,2,2-trifluoroethyl)phenyl]piperidin-1-yl}ethan-1-one] | 206 nM
16 | C[C@@H]1CN(C(=O)c2nn(CC(=O)N3CCC(c4ccc(F)cc4F)CC3)c3c2CCC3)C[C@H](C)O1 [Example 165, 1-[4-(2,4-difluorophenyl)piperidin-1-yl]-2-{3-[(2R,6S)-2,6-dimethylmorpholine-4-carbonyl]-5,6-dihydrocyclopenta[c]pyrazol-1(4H)-yl}ethan-1-one] | 234 nM
17 | C[C@@H]1CN(C(=O)c2nn(CC(=O)N3CCC(c4cc(Cl)ccc4F)CC3)c3c2CCC3)C[C@H](C)O1 [Example 166, 1-[4-(5-chloro-2-fluorophenyl)piperidin-1-yl]-2-{3-[(2R,6S)-2,6-dimethylmorpholine-4-carbonyl]-5,6-dihydrocyclopenta[c]pyrazol-1(4H)-yl}ethan-1-one] | 261 nM
18 | C[C@@H]1CN(C(=O)c2nn(CC(=O)N3CCC(c4cc(Cl)cc(Cl)c4)CC3)c3c2CCC3)C[C@H](C)O1 [Example 167, 1-[4-(3,5-dichlorophenyl)piperidin-1-yl]-2-{3-[(2R,6S)-2,6-dimethylmorpholine-4-carbonyl]-5,6-dihydrocyclopenta[c]pyrazol-1(4H)-yl}ethan-1-one] | 274 nM
19 | CC(C)c1ccc(C2CCN(C(=O)Cn3nc(C(=O)N4C[C@@H](C)O[C@@H](C)C4)c4c3CCC4)CC2)cc1 [Example 168, 2-{3-[(2R,6S)-2,6-dimethylmorpholine-4-carbonyl]-5,6-dihydrocyclopenta[c]pyrazol-1(4H)-yl}-1-{4-[4-(propan-2-yl)phenyl]piperidin-1-yl}ethan-1-one] | 296 nM
20 | C[C@@H]1CN(C(=O)c2nn(CC(=O)N3CCC(c4ccc(C(F)(F)F)c(Cl)c4)CC3)c3c2CCC3)C[C@H](C)O1 [Example 169, 1-{4-[3-chloro-4-(trifluoromethyl)phenyl]piperidin-1-yl}-2-{3-[(2R,6S)-2,6-dimethylmorpholine-4-carbonyl]-5,6-dihydrocyclopenta[c]pyrazol-1(4H)-yl}ethan-1-one] | 329 nM
21 | COc1ccc(Cl)cc1C1CCN(C(=O)Cn2nc(C(=O)N3C[C@@H](C)O[C@@H](C)C3)c3c2CCC3)CC1 [Example 170, 1-[4-(5-chloro-2-methoxyphenyl)piperidin-1-yl]-2-{3-[(2R,6S)-2,6-dimethylmorpholine-4-carbonyl]-5,6-dihydrocyclopenta[c]pyrazol-1(4H)-yl}ethan-1-one] | 361 nM
22 | C[C@@H]1CN(C(=O)c2nn(CC(=O)N3CCC(c4cccc5cnccc45)CC3)c3c2CCC3)C[C@H](C)O1 [Example 171, 2-{3-[(2R,6S)-2,6-dimethylmorpholine-4-carbonyl]-5,6-dihydrocyclopenta[c]pyrazol-1(4H)-yl}-1-[4-(isoquinolin-5-yl)piperidin-1-yl]ethan-1-one] | 440 nM
23 | Cc1c(C2CCN(C(=O)Cn3nc(C(=O)N4C[C@@H](C)O[C@@H](C)C4)c4c3CCC4)CC2)ccc(F)c1F [Example 174, 1-[4-(3,4-difluoro-2-methylphenyl)piperidin-1-yl]-2-{3-[(2R,6S)-2,6-dimethylmorpholine-4-carbonyl]-5,6-dihydrocyclopenta[c]pyrazol-1(4H)-yl}ethan-1-one] | 10.3 nM
